Measured values taken from paper PMC8318231, “Rate-of-Kill (RoK) assays to triage large compound sets for Chagas disease drug discovery: Application to GSK Chagas Box” (PLoS Neglected Tropical Diseases, 2021).
Like-named read-outs stand apart in the source and are kept apart here.

Tests used:
[1] = system: T. cruzi Tulahuen trypomastigotes; assay: T. cruzi trypomastigote assay (Cell Titer-Glo viability, ATP luminescence); assay type: cell-based, Trypanosoma cruzi; settings: for Trypomastigotes pIC50 48 hours: 48 hours incubation; for Trypomastigotes pIC50 48 hours / Trypomastigotes pIC50 72 hours: pIC50 = -log10 IC50 in molar units; for Trypomastigotes pIC50 72 hours: 72 hours incubation; for activity in trypomastigotes assay (in words): 48 and 72 hours; for IC50: Trypanosoma cruzi, TULAHUEN; for pIC50 versus trypomastigotes: invariable at the two incubation times tested
Summary of the method: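 Compounds were tested in dose response or once at a final 5 μM against 5 × 10^4 trypomastigotes per well (DMEM, 2% FBS), collected on days 5–8 from LLC-MK2 infected cultures. ATP luminescence via CellTiter-Glo reports live parasites; DMSO defines 0% and cell-free wells 100% effect.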

[2] = system: T. cruzi intracellular amastigotes in H9c2 cells; assay: Rate-of-Kill (RoK) high-content imaging assay, amastigotes per cell (AM/CELL) and curve descriptors; assay type: cell-based, Trypanosoma cruzi; design: key to ME_24h / ME_48h / ME_72h: % reduction in parasite burden (cidal response); t50pct_MCC50 / t50pct_Cmax: unit not given here; settings: for ME_24h: 24h; for ME_48h: 48h; for ME_72h: 72h; for t50%_Cmax / tlag_Cmax / t50pct_Cmax: at Cmax; for ME_24h (%): maximum effect at 24 h; for ME_24h (%) / ME_48h (%) / ME_72h (%): RoK assay; for ME_48h (%): maximum effect at 48 h; for ME_72h (%): maximum effect at 72 h; for ME 24h (maximum effect at 24 hours, intracellular amastigotes) / Emax: maximum percentage of parasite burden reduction reached by any concentration, 24 hours; for Emax: read-out: ME 24h (maximum effect at 24 hours, intracellular amastigotes)
Summary of the method: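 Readouts at each time point are amastigotes per cell and host nuclei count (cytotoxicity), from DRAQ5 high-content imaging. Infection: trypomastigotes on H9c2 at MOI 8 for 18 h. Dosing was 5 μM single point or 11 points, 1/3 steps from 50 μM. Effect scaled between 4 h infected and uninfected controls.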

[3] = system: TcCYP51; settings: cited from earlier work; for CYP51 pIC50: formerly reported; for CYP51 mean: TcCYP51 enzyme inhibition, figure 1B, ref original boxes paper
[4] = 72 hours, plotted values, censored values given without sign
[5] = trypomastigote assay, 48 h, figure 1A
[6] = trypomastigote assay, 72 h, figure 1A
[7] = trypomastigote assay, 72 h, figure 1B
[8] = 48 h, read-out: Trypomastigotes pIC50 48 hours (converted)
[9] = 72 h, read-out: Trypomastigotes pIC50 72 hours (converted)

Row | Compound | Trypomastigotes pIC50 48 hours [1] | ME_24h ([2]; figure 5) | ME_48h ([2]; figure 5) | ME_72h ([2]; figure 5) | MCC50 ([2]; RoK curve descriptor) | MCCE ([2]; RoK curve descriptor) | t50%_Cmax [2] | tlag_Cmax [2] | t50pct_Cmax ([2]; figure 5) | tlag_Cmax ([2]; figure 5) | t50%_MCC50 ([2]; at MCC50) | tlag_MCC50 ([2]; at MCC50) | t50pct_MCC50 ([2]; at MCC50, figure 5) | tlag_MCC50 ([2]; at MCC50, figure 5) | MCCE ([2]; figure 5) | MCC50 ([2]; figure 5, in µM) | ME_24h (%) [2] | ME_48h (%) [2] | ME_72h (%) [2] | CYP51 pIC50 [3] | further results
1 | Cc1nccn1C1CCCN(C(=O)c2cc3c(F)cccc3s2)C1 (stereo not shown) [TCMDC-143498] | 4.7 | 32.6582 | 54.1455 | 68.2465 | 4.6 µM | 1.9 µM | 48.0 h | 8.0 h | 48 | 8 | 72.0 h | 24.0 h | 72 | 33.6 | 1.852 | 13.7037 | 32.7% | 54.2% | 68.3% | 4.3 | Trypomastigotes pIC50 72 hours [1]: 4.7; 72 pIC50 (trypomastigotes, raw data of Fig 1D) [1, 4]: 4.7; 48 pIC50 [1, 5]: 4.7; 72 pIC50 [1, 6]: 4.7; 72 pIC50 [1, 7]: 4.7; AM/CELL NORM ([2]; Time 4, figure 4 A): 21.9505; AM/CELL NORM ([2]; Time 24, figure 4 A): 50.5271; AM/CELL NORM ([2]; Time 48, figure 4 A): 69.4926; AM/CELL NORM ([2]; Time 72, figure 4 A): 61.0854; ME 24h (maximum effect at 24 hours, intracellular amastigotes) [2]: 52.5921%
2 | O=C(Cn1ccnc1[N+](=O)[O-])NCc1ccccc1 [Benznidazole, benznidazole, reference compound] | – | 49.8205 | 84.8832 | 90.745 | 31.2 µM | 3.9 µM | 35.0 h | 5.5 h | 34 | 4 | 46.2 h | 8.6 h | 46 | 7.333 | 4.172 | 33.802 | 49.8% | 84.9% | 90.7% | < 4 | activity in trypomastigotes assay (in words) [1]: active; IC50 [1, 8]: 6.31 µM; IC50 [1, 9]: 5.01 µM; pIC50 versus trypomastigotes [1]: 5.3; ME (maximum effect) in RoK assay (in words) [2]: higher ME values close to 100%; tlag (in words) [2]: short t-lag values; MCCE (Minimal Compound Concentration with Effect) ([2]; Fig 2C, average, lowest concentration that decreases AUC of AM/CELL versus time by at least 50% vs infected control, listed as BNZ): 3.9 µM; MCC50 (Minimal Cidal Concentration 50%) ([2]; Fig 2C, average, lowest concentration that reduces 50% of the parasite load measured at zero time, listed as BNZ): 31.2 µM; t50pct_MCC50 (t50%_MCC50) ([2]; Fig 2C, average, time to reduce 50% of initial parasite load at MCC50, listed as BNZ): 46.2 h; AM/CELL NORM ([2]; Time 4, figure 4 A): 14.6109; AM/CELL NORM ([2]; Time 24, figure 4 A): 40.5448; AM/CELL NORM ([2]; Time 48, figure 4 A): 53.9104; AM/CELL NORM ([2]; Time 72, figure 4 A): 66.8038; Emax at 50 µM ([2]; Trypanosoma cruzi, H9c2, BNZ at 50 μM, 48 hours, read-out: maximum effect): 100%; Emax ([2]; Trypanosoma cruzi, H9c2): 49.2%; CYP51 mean [3]: 4.3
3 | O=C(C1CCCCC1)N1CCN(c2nnc(-c3ccccc3)c3ccccc23)CC1 [TCMDC-143511] | < 4.3 | -40.3218 | 29.1145 | 87.9479 | 5.6 µM | 1.9 µM | 72.0 h | 24.0 h | 72 | 24 | 72.0 h | 24.0 h | 72 | 24 | 1.852 | 5.556 | -40.3% | 29.1% | 88.0% | < 4 | Trypomastigotes pIC50 72 hours [1]: < 4.3; 72 pIC50 (trypomastigotes, raw data of Fig 1D) [1, 4]: < 4.3; 48 pIC50 [1, 5]: < 4.3; 72 pIC50 [1, 6]: < 4.3; 72 pIC50 [1, 7]: < 4.3; AM/CELL NORM ([2]; Time 4, sheet figure 4 A): -0.05415; AM/CELL NORM ([2]; Time 24, sheet figure 4 A): -40.3218; AM/CELL NORM ([2]; Time 48, sheet figure 4 A): 2.791; AM/CELL NORM ([2]; Time 72, sheet figure 4 A): 87.9479; ME 24h (maximum effect at 24 hours, intracellular amastigotes) [2]: -40.3218%
4 | CC1CS(=O)(=O)CCN1/N=C/c1ccc([N+](=O)[O-])o1 (stereo not shown) [Nifurtimox, nifurtimox, reference compound] | – | 79.7791 | 100.284 | 96.6694 | 7.5 µM | 1.9 µM | 24.0 h | 4.0 h | 25.3333 | 4 | 48.2 h | 8.9 h | 48.2222 | 8.889 | 1.852 | 7.545 | 79.8% | 100.3% | 96.7% | < 4 | activity in trypomastigotes assay (in words) [1]: active; IC50 [1, 8]: 1.26 µM; IC50 [1, 9]: 1.26 µM; IC50 ([1]; 72 hours, plotted values, censored values given without sign, read-out: 72 pIC50 (trypomastigotes, raw data of Fig 1D) (converted)): 1.26 µM; IC50 ([1]; trypomastigote assay, 48 h, figure 1A, read-out: 48 pIC50 (converted)): 1.26 µM; IC50 ([1]; trypomastigote assay, 72 h, figure 1A, read-out: 72 pIC50 (converted)): 1.26 µM; pIC50 versus trypomastigotes [1]: 5.9; ME (maximum effect) in RoK assay (in words) [2]: higher ME values close to 100%; tlag (in words) [2]: short t-lag values; t50pct_Cmax (t50%_Cmax) ([2]; Fig 2C, average, time to reduce 50% of initial parasite load at maximum concentration): 24 h; AM/CELL NORM ([2]; Time 4, figure 4 A): -6.175; AM/CELL NORM ([2]; Time 24, figure 4 A): 78.541; AM/CELL NORM ([2]; Time 48, figure 4 A): 98.3875; AM/CELL NORM ([2]; Time 72, figure 4 A): 101.766; Emax ([2]; Trypanosoma cruzi, H9c2): 81.7%; CYP51 mean [3]: 4.3
5 | CC(C)Oc1cccc(N2CCC(C(=O)N3CCCN(C(C)C)CC3)CC2)c1.Cl [TCMDC-143432] | < 4.3 | -31.9347 | 48.3783 | 79.9841 | 1.9 µM | 1.2 µM | 60.0 h | 24.0 h | 60 | 24 | 72.0 h | 24.0 h | 72 | 24 | 1.235 | 1.852 | -31.9% | 48.4% | 80.0% | < 4 | Trypomastigotes pIC50 72 hours [1]: < 4.3; 72 pIC50 (trypomastigotes, raw data of Fig 1D) [1, 4]: < 4.3; 48 pIC50 [1, 5]: < 4.3; 72 pIC50 [1, 6]: < 4.3; 72 pIC50 [1, 7]: < 4.3; AM/CELL NORM ([2]; Time 4, sheet figure 4 A): -8.446; AM/CELL NORM ([2]; Time 24, sheet figure 4 A): -20.4309; AM/CELL NORM ([2]; Time 48, sheet figure 4 A): 59.253; AM/CELL NORM ([2]; Time 72, sheet figure 4 A): 56.8532; ME 24h (maximum effect at 24 hours, intracellular amastigotes) [2]: -15.8852%
